Tests used:
Format in all cases: cell-based
[1] = target: T1, HER2 S310F (Homo sapiens, UniProt P04626, S310F); test: BaF3 cell proliferation assay, HER2 S310F (Table B); details: potency code, 3 days, CellTiterGlo, read-out: HER2 S310F (Activity for Inhibiting HER2)
T1 construct: expressed in transfected cells; host or cells: BaF3 (murine pro-B)

[2] = target: T2, EGFR V3 (Homo sapiens, UniProt P00533, DELINS30-297G); test: BaF3 cell proliferation assay, EGFR V3 (Table A); details: potency code, 3 days, CellTiterGlo, read-out: EGFR V3 (Activity for Inhibiting EGFR)
T2 construct: expressed in transfected cells; host or cells: BaF3 (murine pro-B), retroviral pMXs-IRES-Blasticidin
T2 sequence (P00533 with tags, fused parts or gaps DELINS30-297G): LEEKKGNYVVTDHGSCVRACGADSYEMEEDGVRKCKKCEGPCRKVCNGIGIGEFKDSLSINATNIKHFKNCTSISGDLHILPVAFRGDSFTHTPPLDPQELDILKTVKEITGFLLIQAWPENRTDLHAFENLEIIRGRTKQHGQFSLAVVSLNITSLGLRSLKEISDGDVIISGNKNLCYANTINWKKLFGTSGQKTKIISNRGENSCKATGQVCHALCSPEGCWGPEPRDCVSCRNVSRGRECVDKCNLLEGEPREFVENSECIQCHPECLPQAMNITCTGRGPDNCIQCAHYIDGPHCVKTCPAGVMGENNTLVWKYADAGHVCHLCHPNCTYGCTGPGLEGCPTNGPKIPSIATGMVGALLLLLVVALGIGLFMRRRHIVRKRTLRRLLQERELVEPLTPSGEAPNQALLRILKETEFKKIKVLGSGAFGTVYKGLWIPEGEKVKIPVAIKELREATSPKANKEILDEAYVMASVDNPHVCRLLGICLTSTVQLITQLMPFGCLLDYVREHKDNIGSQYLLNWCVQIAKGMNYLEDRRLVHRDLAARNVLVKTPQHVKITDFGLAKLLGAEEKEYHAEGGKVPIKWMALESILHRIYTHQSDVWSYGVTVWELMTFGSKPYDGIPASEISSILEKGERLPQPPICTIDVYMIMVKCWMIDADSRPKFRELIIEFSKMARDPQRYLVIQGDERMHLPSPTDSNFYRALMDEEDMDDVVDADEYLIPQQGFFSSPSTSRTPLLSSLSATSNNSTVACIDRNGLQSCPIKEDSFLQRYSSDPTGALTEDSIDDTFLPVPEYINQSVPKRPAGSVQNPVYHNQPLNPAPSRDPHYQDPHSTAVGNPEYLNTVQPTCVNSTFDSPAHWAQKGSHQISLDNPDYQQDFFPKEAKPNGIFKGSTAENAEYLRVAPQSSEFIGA
Experimental: (§1) Retroviral Production: EGFR mutants were subcloned into pMXs-IRES-Blasticidin (RTV-016, Cell Biolabs, San Diego, Calif.). Retroviral expression vector retrovirus was produced by transient transfection of HEK 293T cells with the retroviral EGFR mutant expression vector pMXs-IRES-Blasticidin (RTV-016, Cell Biolabs), pCMV-Gag-Pol vector and pCMV-VSV-G-Envelope vector. Briefly, HEK 293T/17 cells were plated in 100 mm collagen coated plate (354450, Corning Life Sciences, Tewksbury, Mass.) (4×10^5 per plate) and incubated overnight. The next day, retroviral plasmids (3 μg of EGFR mutant, 1.0 μg of pCMV-Gag-Pol and 0.5 μg pCMV-VSV-G) were mixed in 500 μl of Optimem (31985, Life Technologies). The mixture was incubated at room temperature for 5 min and then added to Optimem containing transfection reagent Lipofectamine (11668, Invitrogen) and incubated for 20 minutes. Mixture was then added dropwise to HEK 293T cells. The next day the medium was replaced with fresh culture medium and retrovirus was harvested @ 24 and 48 hrs.
(§2) Generation of EGFR mutant stable cell lines: BaF3 cells (1.5E5 cells) were infected with 1 ml of viral supernatant supplemented with 8 μg/ml polybrene by centrifuging for 30 min at 1000 rpm. Cells were placed in a 37° C. incubator overnight. Cells were then spun for 5 minutes to pellet the cells. Supernatant was removed and cells re-infected a fresh 1 ml of viral supernatant supplemented with 8 μg/ml polybrene by centrifuging for 30 min at 1000 rpm. Cells were placed in 37° C. incubator overnight. […] After 48 hours cells were selected for retroviral infection in 10 μg/ml Blasticidin for one week. Blasticidin resistant populations were washed twice in phosphate buffered saline before plating in media lacking IL-3 to select for IL-3 independent growth.
(§3) EC50 values were determined with the same application.

[3] = target: T1, HER2 S310F; test: Activity for inhibiting HER2 (Table B), HER2 S310F; details: read-out: HER2 S310F, potency code (IC50)
Experimental: as §3

[4] = target: T3, EGFR WT (Homo sapiens, UniProt P00533); test: Activity for inhibiting EGFR (Table A), EGFR WT; details: read-out: EGFR WT, potency code (IC50)
T3 sequence (P00533 25-1210 N540K): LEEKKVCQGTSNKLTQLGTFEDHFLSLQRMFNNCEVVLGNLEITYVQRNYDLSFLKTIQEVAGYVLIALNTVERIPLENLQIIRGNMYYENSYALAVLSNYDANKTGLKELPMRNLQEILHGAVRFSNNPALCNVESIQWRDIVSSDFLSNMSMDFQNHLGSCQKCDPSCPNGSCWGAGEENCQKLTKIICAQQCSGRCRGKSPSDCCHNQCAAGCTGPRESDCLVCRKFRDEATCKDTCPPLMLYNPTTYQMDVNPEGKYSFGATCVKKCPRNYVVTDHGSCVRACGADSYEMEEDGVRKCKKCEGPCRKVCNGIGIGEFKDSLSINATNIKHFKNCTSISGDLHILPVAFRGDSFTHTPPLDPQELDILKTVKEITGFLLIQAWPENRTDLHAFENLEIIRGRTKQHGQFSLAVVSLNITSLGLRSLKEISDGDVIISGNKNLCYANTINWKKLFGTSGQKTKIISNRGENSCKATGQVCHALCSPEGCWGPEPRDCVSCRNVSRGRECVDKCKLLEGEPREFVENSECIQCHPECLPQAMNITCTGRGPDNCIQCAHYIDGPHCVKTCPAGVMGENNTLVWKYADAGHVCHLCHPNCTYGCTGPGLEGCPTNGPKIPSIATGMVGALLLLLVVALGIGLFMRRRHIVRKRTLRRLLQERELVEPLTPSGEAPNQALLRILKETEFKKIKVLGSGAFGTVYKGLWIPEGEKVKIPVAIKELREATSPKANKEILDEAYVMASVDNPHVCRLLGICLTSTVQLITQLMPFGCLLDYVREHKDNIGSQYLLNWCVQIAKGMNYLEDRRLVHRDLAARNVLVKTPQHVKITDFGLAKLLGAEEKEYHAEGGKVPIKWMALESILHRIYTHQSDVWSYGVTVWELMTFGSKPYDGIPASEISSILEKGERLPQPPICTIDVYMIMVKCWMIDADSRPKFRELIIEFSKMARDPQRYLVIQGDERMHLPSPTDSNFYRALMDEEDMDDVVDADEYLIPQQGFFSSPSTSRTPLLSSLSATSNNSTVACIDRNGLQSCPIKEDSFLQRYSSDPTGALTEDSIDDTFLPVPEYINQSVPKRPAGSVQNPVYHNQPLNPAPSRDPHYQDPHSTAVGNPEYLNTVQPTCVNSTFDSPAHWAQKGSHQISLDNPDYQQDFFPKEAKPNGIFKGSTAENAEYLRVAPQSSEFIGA

[5] = target: T4, HER2 YVMA (Homo sapiens, UniProt P04626, INS775YVMA); test: Activity for inhibiting HER2 (Table B), HER2 YVMA; details: read-out: HER2 YVMA, potency code (IC50)
T4 construct: expressed in transfected cells; host or cells: BaF3 (murine pro-B)
T4 sequence (P04626 with tags, fused parts or gaps INS775YVMA): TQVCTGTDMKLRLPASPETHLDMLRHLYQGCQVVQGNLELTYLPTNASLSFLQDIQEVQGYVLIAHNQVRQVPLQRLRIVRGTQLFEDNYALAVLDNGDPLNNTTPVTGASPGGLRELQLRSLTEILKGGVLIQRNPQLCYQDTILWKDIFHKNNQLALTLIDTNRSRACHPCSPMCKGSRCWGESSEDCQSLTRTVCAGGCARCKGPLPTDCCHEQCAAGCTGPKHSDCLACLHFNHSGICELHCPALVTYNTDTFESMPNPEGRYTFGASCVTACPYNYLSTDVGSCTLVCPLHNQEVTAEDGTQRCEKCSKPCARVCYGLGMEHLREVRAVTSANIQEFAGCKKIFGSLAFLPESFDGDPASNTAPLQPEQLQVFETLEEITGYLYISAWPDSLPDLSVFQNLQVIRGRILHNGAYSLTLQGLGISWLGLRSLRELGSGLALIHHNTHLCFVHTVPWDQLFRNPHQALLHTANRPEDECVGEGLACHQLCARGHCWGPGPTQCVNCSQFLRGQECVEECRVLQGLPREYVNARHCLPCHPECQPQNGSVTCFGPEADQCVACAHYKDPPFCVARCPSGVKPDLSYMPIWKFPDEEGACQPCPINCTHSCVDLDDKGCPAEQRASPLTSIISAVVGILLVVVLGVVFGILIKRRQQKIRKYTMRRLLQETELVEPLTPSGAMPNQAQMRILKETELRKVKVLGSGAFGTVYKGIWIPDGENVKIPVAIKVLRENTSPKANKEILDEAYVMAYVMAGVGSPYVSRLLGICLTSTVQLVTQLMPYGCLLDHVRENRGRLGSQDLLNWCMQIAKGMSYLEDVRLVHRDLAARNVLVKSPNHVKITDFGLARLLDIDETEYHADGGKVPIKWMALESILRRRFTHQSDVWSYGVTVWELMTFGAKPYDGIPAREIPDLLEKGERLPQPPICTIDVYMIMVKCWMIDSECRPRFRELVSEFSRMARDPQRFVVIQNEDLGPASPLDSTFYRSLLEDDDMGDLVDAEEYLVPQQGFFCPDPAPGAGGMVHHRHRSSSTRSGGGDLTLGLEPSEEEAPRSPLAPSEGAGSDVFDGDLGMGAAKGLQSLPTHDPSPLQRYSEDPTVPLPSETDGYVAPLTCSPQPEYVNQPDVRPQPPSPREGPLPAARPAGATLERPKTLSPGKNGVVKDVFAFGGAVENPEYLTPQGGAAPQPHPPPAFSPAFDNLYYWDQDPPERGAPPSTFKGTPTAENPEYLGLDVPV
Experimental: as §3

[6] = target: T3, EGFR WT; test: BaF3 cell proliferation assay, EGFR WT (Table A); details: potency code, 3 days, CellTiterGlo, read-out: EGFR WT (Activity for Inhibiting EGFR)
Experimental: as §1, §2, §3

[7] = target: T4, HER2 YVMA; test: BaF3 cell proliferation assay, HER2 YVMA (Table B); details: potency code, 3 days, CellTiterGlo, read-out: HER2 YVMA (Activity for Inhibiting HER2)
[8] = target: T2, EGFR V3; test: Activity for inhibiting EGFR (Table A), EGFR V3 (EGFR-Viii); details: read-out: EGFR V3, potency code (IC50)

T1 sequence (P04626 23-1255 S310F): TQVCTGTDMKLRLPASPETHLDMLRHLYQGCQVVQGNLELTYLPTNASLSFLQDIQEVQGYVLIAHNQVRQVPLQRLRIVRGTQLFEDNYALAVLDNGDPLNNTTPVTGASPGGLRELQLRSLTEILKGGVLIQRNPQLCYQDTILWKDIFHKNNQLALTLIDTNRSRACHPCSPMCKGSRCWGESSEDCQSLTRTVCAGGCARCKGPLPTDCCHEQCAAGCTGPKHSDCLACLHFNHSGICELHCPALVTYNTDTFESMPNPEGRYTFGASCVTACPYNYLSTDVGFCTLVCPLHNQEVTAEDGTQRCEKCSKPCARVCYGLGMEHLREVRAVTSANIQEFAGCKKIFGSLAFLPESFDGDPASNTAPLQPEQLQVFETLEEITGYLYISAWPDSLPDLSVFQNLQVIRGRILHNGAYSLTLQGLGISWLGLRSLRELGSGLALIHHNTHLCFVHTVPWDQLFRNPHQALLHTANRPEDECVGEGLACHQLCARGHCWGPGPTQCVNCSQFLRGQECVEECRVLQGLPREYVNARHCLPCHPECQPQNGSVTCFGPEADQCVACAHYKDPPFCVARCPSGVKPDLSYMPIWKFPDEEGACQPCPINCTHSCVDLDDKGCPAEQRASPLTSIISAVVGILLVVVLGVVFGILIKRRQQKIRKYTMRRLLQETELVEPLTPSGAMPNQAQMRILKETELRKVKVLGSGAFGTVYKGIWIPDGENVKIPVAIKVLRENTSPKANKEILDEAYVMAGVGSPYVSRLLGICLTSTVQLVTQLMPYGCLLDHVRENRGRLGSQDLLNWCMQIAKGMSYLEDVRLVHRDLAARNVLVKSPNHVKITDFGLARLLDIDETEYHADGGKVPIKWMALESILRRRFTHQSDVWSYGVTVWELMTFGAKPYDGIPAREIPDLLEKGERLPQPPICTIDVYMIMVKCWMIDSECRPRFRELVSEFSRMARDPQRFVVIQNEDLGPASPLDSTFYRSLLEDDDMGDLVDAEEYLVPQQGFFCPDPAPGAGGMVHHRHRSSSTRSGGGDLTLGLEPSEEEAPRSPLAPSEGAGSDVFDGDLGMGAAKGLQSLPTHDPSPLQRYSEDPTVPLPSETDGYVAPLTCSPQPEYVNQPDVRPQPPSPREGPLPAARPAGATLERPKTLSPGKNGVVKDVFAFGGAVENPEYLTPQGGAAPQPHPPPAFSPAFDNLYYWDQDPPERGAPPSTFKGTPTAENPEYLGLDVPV

CC#CC(=O)Nc1cc2c(Nc3ccc(OCc4ccccn4)c(Cl)c3)ncnc2cc1C#CC1[C@H]2CN(C)C[C@@H]12 (stereo partly drawn) [compound 107, N-(4-((3-chloro-4-(pyridin-2-ylmethoxy)phenyl)amino)-7-(((1R,5S,6s)-3-methyl-3-azabicyclo[3.1.0]hexan-6-yl)ethynyl)quinazolin-6-yl)but-2-ynamide]
IC50 [1]: 0.01 to 0.02 µM | IC50 [2]: 0.05 to 0.1 µM | IC50 [3]: 0.01 to 0.02 µM | IC50 [4]: 0.2 to 0.3 µM | IC50 [5]: 0.03 to 0.05 µM | IC50 [6]: 0.2 to 0.3 µM | IC50 [7]: 0.03 to 0.05 µM | IC50 [8]: 0.05 to 0.1 µM

CC#CC(=O)Nc1cc2c(Nc3ccc(Oc4ccccc4)cc3)ncnc2cc1C#C[C@@H]1[C@H]2CN(C)C[C@@H]12 [compound 108, N-(7-(((1R,5S,6s)-3-methyl-3-azabicyclo[3.1.0]hexan-6-yl)ethynyl)-4-((4-phenoxyphenyl)amino)quinazolin-6-yl)but-2-ynamide]
IC50 [1]: 0.05 to 0.1 µM | IC50 [2]: 0.1 to 0.2 µM | IC50 [3]: 0.05 to 0.1 µM | IC50 [4]: 0.5 to 1 µM | IC50 [5]: 0.5 to 1 µM | IC50 [6]: 0.5 to 1 µM | IC50 [7]: 0.5 to 1 µM | IC50 [8]: 0.1 to 0.2 µM

C=C(F)C(=O)Nc1cc2c(Nc3ccc(OCc4ccccn4)c(Cl)c3)ncnc2cc1OCCN1CCOCC1 [compound 109, N-(4-((3-chloro-4-(pyridin-2-ylmethoxy)phenyl)amino)-7-(2-morpholinoethoxy)quinazolin-6-yl)-2-fluoroacrylamide]
IC50 [1]: 0.01 to 0.02 µM | IC50 [2]: 0.01 to 0.02 µM | IC50 [3]: 0.01 to 0.02 µM | IC50 [4]: 0.03 to 0.05 µM | IC50 [5]: 0.05 to 0.1 µM | IC50 [6]: 0.03 to 0.05 µM | IC50 [7]: 0.05 to 0.1 µM | IC50 [8]: 0.01 to 0.02 µM

C=CC(=O)Nc1cc2c(Nc3ccc(OCc4ccccn4)c(Cl)c3)ncnc2cc1OC1CCN(C)CC1 [compound 110, N-(4-((3-chloro-4-(pyridin-2-ylmethoxy)phenyl)amino)-7-((1-methylpiperidin-4-yl)oxy)quinazolin-6-yl)acrylamide]
IC50 [1]: 0.03 to 0.05 µM | IC50 [2]: 0.02 to 0.03 µM | IC50 [3]: 0.03 to 0.05 µM | IC50 [4]: 0.2 to 0.3 µM | IC50 [5]: 0.2 to 0.3 µM | IC50 [6]: 0.2 to 0.3 µM | IC50 [7]: 0.2 to 0.3 µM | IC50 [8]: 0.02 to 0.03 µM

C=CC(=O)Nc1cc2c(Nc3ccc(OCc4ccccn4)c(Cl)c3)ncnc2cc1OCCN1CCC(O)CC1 [compound 111, N-(4-((3-chloro-4-(pyridin-2-ylmethoxy)phenyl)amino)-7-(2-(4-hydroxypiperidin-1-yl)ethoxy)quinazolin-6-yl)acrylamide]
IC50 [1]: 0.03 to 0.05 µM | IC50 [2]: 0.03 to 0.05 µM | IC50 [3]: 0.03 to 0.05 µM | IC50 [4]: 0.3 to 0.5 µM | IC50 [5]: 0.1 to 0.2 µM | IC50 [6]: 0.3 to 0.5 µM | IC50 [7]: 0.1 to 0.2 µM | IC50 [8]: 0.03 to 0.05 µM

COC/C=C/C(=O)Nc1cc2c(Nc3ccc(OCc4ccccn4)c(Cl)c3)ncnc2cc1OCCN1CCOCC1 [compound 112, (E)-N-(4-((3-chloro-4-(pyridin-2-ylmethoxy)phenyl)amino)-7-(2-morpholinoethoxy)quinazolin-6-yl)-4-methoxybut-2-enamide]
IC50 [1]: 0.3 to 0.5 µM | IC50 [2]: 0.1 to 0.2 µM | IC50 [3]: 0.3 to 0.5 µM | IC50 [4]: 0.3 to 0.5 µM | IC50 [5]: > 1 µM | IC50 [6]: 0.3 to 0.5 µM | IC50 [7]: > 1 µM | IC50 [8]: 0.1 to 0.2 µM

C=CC(=O)Nc1cc2c(Nc3ccc(OCc4ccccn4)c(Cl)c3)ncnc2cc1C#C[C@@H]1[C@H]2CN(C3COC3)C[C@@H]12 [compound 113, N-(4-((3-chloro-4-(pyridin-2-ylmethoxy)phenyl)amino)-7-(((1R,5S,6s)-3-(oxetan-3-yl)-3-azabicyclo[3.1.0]hexan-6-yl)ethynyl)quinazolin-6-yl)acrylamide]
IC50 [1]: 0.03 to 0.05 µM | IC50 [2]: 0.05 to 0.1 µM | IC50 [3]: 0.03 to 0.05 µM | IC50 [4]: 0.5 to 1 µM | IC50 [5]: 0.1 to 0.2 µM | IC50 [6]: 0.5 to 1 µM | IC50 [7]: 0.1 to 0.2 µM | IC50 [8]: 0.05 to 0.1 µM

C=CC(=O)Nc1cc2c(Nc3ccc(OCc4ccccn4)c(Cl)c3)ncnc2cc1OCCN1CCC(OC)CC1 [compound 114, N-(4-((3-chloro-4-(pyridin-2-ylmethoxy)phenyl)amino)-7-(2-(4-methoxypiperidin-1-yl)ethoxy)quinazolin-6-yl)acrylamide]
IC50 [1]: 0.03 to 0.05 µM | IC50 [2]: 0.03 to 0.05 µM | IC50 [3]: 0.03 to 0.05 µM | IC50 [4]: 0.3 to 0.5 µM | IC50 [5]: 0.1 to 0.2 µM | IC50 [6]: 0.3 to 0.5 µM | IC50 [7]: 0.1 to 0.2 µM | IC50 [8]: 0.03 to 0.05 µM

Source: patent US11034672B1, “Tyrosine kinase inhibitor compositions, methods of making and methods of use” (Black Diamond Therapeutics, Inc., priority 2018, dated 2021)
